PubChem BioAssay (NCI)
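Method: 48-hour compound exposure of cells in 96-well plates, five concentrations, linear interpolation of endpoints. GI50 = concentration required for 50% inhibition of growth. TGI: total growth inhibition.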

Tests used:
Assay in all cases: NCI-60 cell line screen, 48 h
SK-MEL-28 melanoma = tested on: SK-MEL-28 melanoma
NCI-H522 lung = tested on: NCI-H522 lung
UACC-62 melanoma = tested on: UACC-62 melanoma
U251 CNS = tested on: U251 CNS
UACC-257 melanoma = tested on: UACC-257 melanoma
SF-268 CNS = tested on: SF-268 CNS
NCI-H460 lung = tested on: NCI-H460 lung
SN12C renal = tested on: SN12C renal
SK-MEL-2 melanoma = tested on: SK-MEL-2 melanoma
MDA-MB-435 = tested on: MDA-MB-435

COC(=O)C1Cc2c([nH]c3ccccc23)C=N1 (stereo unspecified)
TGI (SK-MEL-28 melanoma): > 100 µM | TGI (NCI-H522 lung): > 100 µM | TGI (UACC-62 melanoma): > 100 µM | TGI (U251 CNS): > 100 µM | TGI (UACC-257 melanoma): > 100 µM | TGI (SF-268 CNS): > 100 µM | TGI (NCI-H460 lung): > 100 µM | TGI (SN12C renal): > 100 µM

Cc1cccc(C)c1NC(=O)C(=O)C1C(=O)N(c2ccccc2)N=C1N (stereo unspecified)
TGI (SK-MEL-2 melanoma): > 100 µM | TGI (SK-MEL-28 melanoma): > 100 µM | TGI (NCI-H522 lung): > 100 µM | TGI (UACC-62 melanoma): > 100 µM | TGI (U251 CNS): > 100 µM | TGI (UACC-257 melanoma): > 100 µM | TGI (SF-268 CNS): > 100 µM | TGI (NCI-H460 lung): > 100 µM | TGI (SN12C renal): > 100 µM

O=C(CC1C(=O)Nc2ccccc2S1=O)Nc1cccc(Cl)c1 (stereo unspecified)
TGI (MDA-MB-435): > 100 µM | TGI (SK-MEL-2 melanoma): > 100 µM | TGI (SK-MEL-28 melanoma): > 100 µM | TGI (UACC-62 melanoma): > 76.1 µM | TGI (U251 CNS): > 100 µM | TGI (UACC-257 melanoma): > 100 µM | TGI (SF-268 CNS): > 100 µM | TGI (NCI-H460 lung): > 83.2 µM | TGI (SN12C renal): > 100 µM

N#Cc1c2ccccc2c2nnc3cc(Cl)c(Cl)cc3n12
GI50 (MDA-MB-435): > 100 µM | TGI (MDA-MB-435): > 100 µM | GI50 (SK-MEL-2 melanoma): 60.7 µM | TGI (SK-MEL-2 melanoma): > 100 µM | GI50 (NCI-H522 lung): 39.2 µM | TGI (NCI-H522 lung): > 100 µM | GI50 (UACC-62 melanoma): 62.1 µM | TGI (UACC-62 melanoma): > 100 µM | GI50 (U251 CNS): 50.7 µM | TGI (U251 CNS): > 100 µM | GI50 (UACC-257 melanoma): 34.5 µM | TGI (UACC-257 melanoma): > 100 µM | GI50 (SF-268 CNS): 27.7 µM | TGI (SF-268 CNS): 83.3 µM | GI50 (NCI-H460 lung): 54.2 µM | TGI (NCI-H460 lung): > 100 µM | GI50 (SN12C renal): 23 µM | TGI (SN12C renal): 61.6 µM

COc1nc2c(nc(N)n2C2OC(CO)C(O)C(O)C2O)c(=O)n1C (stereo unspecified)
TGI (SK-MEL-28 melanoma): > 100 µM | TGI (NCI-H522 lung): > 100 µM | TGI (UACC-62 melanoma): > 100 µM | TGI (U251 CNS): > 100 µM | TGI (UACC-257 melanoma): > 100 µM | TGI (SF-268 CNS): > 100 µM | TGI (NCI-H460 lung): > 100 µM | TGI (SN12C renal): > 100 µM

COC(=O)/C(C#N)=C1\N=NNN1CCCc1ccccc1
TGI (SK-MEL-28 melanoma): > 100 µM | TGI (NCI-H522 lung): 52.7 µM | TGI (UACC-62 melanoma): > 100 µM | TGI (U251 CNS): > 100 µM | TGI (UACC-257 melanoma): > 100 µM | TGI (NCI-H460 lung): > 100 µM | TGI (SN12C renal): > 100 µM

CC(C)(C)NNc1c([N+](=O)[O-])cnn(-c2ccccc2)c1=O
TGI (MDA-MB-435): 3.27 µM | TGI (SK-MEL-28 melanoma): 5.79 µM | TGI (NCI-H522 lung): 4.72 µM | TGI (UACC-62 melanoma): 9.39 µM | TGI (U251 CNS): 8.05 µM | TGI (UACC-257 melanoma): 11.4 µM | TGI (SF-268 CNS): 31 µM | TGI (NCI-H460 lung): 26.3 µM | TGI (SN12C renal): 6.35 µM

Fc1ccc(Nc2nc(Nc3ccc(-c4nc5ccccc5[nH]4)cc3)nc(N3CCCC3)n2)cc1
GI50 (MDA-MB-435): 3.38 µM | TGI (MDA-MB-435): 11.3 µM | GI50 (SK-MEL-2 melanoma): 13 µM | TGI (SK-MEL-2 melanoma): 28 µM | GI50 (SK-MEL-28 melanoma): 1.87 µM | TGI (SK-MEL-28 melanoma): 3.66 µM | GI50 (NCI-H522 lung): 2.16 µM | TGI (NCI-H522 lung): 4.91 µM | GI50 (UACC-62 melanoma): 1.77 µM | TGI (UACC-62 melanoma): 3.61 µM | GI50 (U251 CNS): 2.37 µM | TGI (U251 CNS): 5.82 µM | GI50 (SF-268 CNS): 2.67 µM | TGI (SF-268 CNS): 7.99 µM | GI50 (NCI-H460 lung): 2 µM | TGI (NCI-H460 lung): 4.2 µM | GI50 (SN12C renal): 2.25 µM | TGI (SN12C renal): 5.24 µM

COc1ccc(C(=O)Nc2cccc(C3CC(=O)c4c(cc(OC)c(OC)c4OC)O3)c2)cc1 (stereo unspecified)
GI50 (MDA-MB-435): 0.276 µM | TGI (MDA-MB-435): 1.4 µM | GI50 (SK-MEL-2 melanoma): 2.09 µM | TGI (SK-MEL-2 melanoma): 27.1 µM | GI50 (SK-MEL-28 melanoma): 5.13 µM | TGI (SK-MEL-28 melanoma): > 100 µM | GI50 (NCI-H522 lung): 0.411 µM | TGI (NCI-H522 lung): 5.15 µM | GI50 (UACC-62 melanoma): 0.557 µM | TGI (UACC-62 melanoma): 10.8 µM | GI50 (UACC-257 melanoma): 11.6 µM | TGI (UACC-257 melanoma): 56 µM | GI50 (SF-268 CNS): 2.29 µM | TGI (SF-268 CNS): > 100 µM | GI50 (NCI-H460 lung): 2.21 µM | TGI (NCI-H460 lung): 11.7 µM | GI50 (SN12C renal): 1.62 µM | TGI (SN12C renal): > 100 µM

Cc1ccccc1NC(=O)c1[nH]c(=S)nc(N)c1-c1ccccc1C
TGI (SK-MEL-2 melanoma): > 100 µM | TGI (SK-MEL-28 melanoma): > 100 µM | TGI (NCI-H522 lung): > 100 µM | TGI (UACC-62 melanoma): > 100 µM | TGI (U251 CNS): > 100 µM | TGI (UACC-257 melanoma): > 100 µM | TGI (SF-268 CNS): > 100 µM | TGI (NCI-H460 lung): > 100 µM | TGI (SN12C renal): > 100 µM

O=C(Nc1ccccc1Cl)c1ccc(NC2=C(Cl)C(=O)N(Cc3ccccc3)C2=O)cc1
GI50 (MDA-MB-435): 48.4 µM | TGI (MDA-MB-435): > 100 µM | GI50 (SK-MEL-28 melanoma): 43 µM | TGI (SK-MEL-28 melanoma): > 100 µM | GI50 (NCI-H522 lung): 17.9 µM | TGI (NCI-H522 lung): 38.8 µM | GI50 (UACC-62 melanoma): 19.5 µM | TGI (UACC-62 melanoma): 41.1 µM | GI50 (U251 CNS): 38.4 µM | TGI (U251 CNS): > 100 µM | GI50 (UACC-257 melanoma): 38.8 µM | TGI (UACC-257 melanoma): > 100 µM | GI50 (SF-268 CNS): 23.3 µM | TGI (SF-268 CNS): 55.1 µM | GI50 (NCI-H460 lung): 33.3 µM | TGI (NCI-H460 lung): > 100 µM | GI50 (SN12C renal): 27.8 µM | TGI (SN12C renal): 73.7 µM

C[C@H](NC(=O)OC1C2C=CC(O)C1CC2)c1ccccc1 (stereo partly specified)
TGI (SK-MEL-2 melanoma): > 100 µM | TGI (SK-MEL-28 melanoma): > 100 µM | TGI (NCI-H522 lung): > 100 µM | TGI (UACC-62 melanoma): > 100 µM | TGI (U251 CNS): > 100 µM | TGI (UACC-257 melanoma): > 100 µM | TGI (SF-268 CNS): > 100 µM | TGI (NCI-H460 lung): > 100 µM | TGI (SN12C renal): > 100 µM

O=C(OCCOCCOC(=O)c1c[nH]cc1-c1ccccc1)c1c[nH]cc1-c1ccccc1
TGI (NCI-H522 lung): 29.6 µM | TGI (UACC-62 melanoma): 31 µM | TGI (U251 CNS): 36.7 µM | TGI (UACC-257 melanoma): 33.1 µM | TGI (SF-268 CNS): 40 µM | TGI (NCI-H460 lung): 46.9 µM | TGI (SN12C renal): 42.1 µM

CCC(=O)O[C@@H]1C2C(OC(C)=O)C34COC(C)([C@@H]3C3C(C[C@]3(C)OC(C)=O)[C@@H](OC(=O)c3ccccc3)C4=O)[C@H](OC(C)=O)[C@@]2(OC(C)=O)C[C@@H]1C (stereo partly specified)
TGI (SK-MEL-2 melanoma): > 100 µM | TGI (SK-MEL-28 melanoma): > 100 µM | TGI (NCI-H522 lung): > 100 µM | TGI (UACC-62 melanoma): > 100 µM | TGI (U251 CNS): 46 µM | TGI (UACC-257 melanoma): > 100 µM | TGI (SF-268 CNS): > 100 µM | TGI (NCI-H460 lung): > 100 µM | TGI (SN12C renal): > 100 µM

Cc1ccc(S(=O)(=O)N2CCCCC2CCO)cc1 (stereo unspecified)
TGI (SK-MEL-2 melanoma): > 100 µM | TGI (NCI-H522 lung): > 100 µM | TGI (UACC-62 melanoma): > 100 µM | TGI (U251 CNS): > 100 µM | TGI (UACC-257 melanoma): > 100 µM | TGI (SF-268 CNS): > 100 µM | TGI (NCI-H460 lung): > 100 µM | TGI (SN12C renal): > 100 µM

COc1ccccc1NC(=O)C1=C(C)NC(C)=C(C(=O)Nc2ccccc2OC)C1c1ccc(C(C)C)cc1
TGI (SK-MEL-2 melanoma): > 100 µM | TGI (SK-MEL-28 melanoma): > 100 µM | TGI (UACC-62 melanoma): > 100 µM | TGI (U251 CNS): > 100 µM | TGI (UACC-257 melanoma): > 100 µM | TGI (SF-268 CNS): > 100 µM | TGI (NCI-H460 lung): > 100 µM | TGI (SN12C renal): > 100 µM

O=C1c2cc3c(cc2-c2c1c1ccc([N+](=O)[O-])cc1c(=O)n2CCCCl)OCO3
GI50 (MDA-MB-435): 1.22 µM | TGI (MDA-MB-435): > 100 µM | GI50 (SK-MEL-2 melanoma): > 100 µM | TGI (SK-MEL-2 melanoma): > 100 µM | GI50 (SK-MEL-28 melanoma): 0.525 µM | TGI (SK-MEL-28 melanoma): > 100 µM | GI50 (NCI-H522 lung): > 85.9 µM | TGI (NCI-H522 lung): > 100 µM | GI50 (UACC-62 melanoma): 0.176 µM | TGI (UACC-62 melanoma): 2.5 µM | GI50 (U251 CNS): 0.0828 µM | GI50 (SF-268 CNS): 0.102 µM | TGI (SF-268 CNS): > 100 µM | GI50 (NCI-H460 lung): 0.0277 µM | TGI (NCI-H460 lung): > 100 µM | GI50 (SN12C renal): 0.0862 µM | TGI (SN12C renal): 0.503 µM

O=c1c2ccccc2nc(-c2ccc(Cl)cc2)n1O
TGI (MDA-MB-435): > 100 µM | TGI (NCI-H522 lung): 57 µM | TGI (UACC-62 melanoma): > 100 µM | TGI (U251 CNS): > 100 µM | TGI (UACC-257 melanoma): 88.2 µM | TGI (SF-268 CNS): > 100 µM | TGI (NCI-H460 lung): > 100 µM | TGI (SN12C renal): > 100 µM

CCN(CCCl)CCNc1c2ccccc2nc2ccc(OC)cc12
TGI (SK-MEL-2 melanoma): 2.52 µM | TGI (SK-MEL-28 melanoma): 3.67 µM | TGI (NCI-H522 lung): 1.71 µM | TGI (UACC-62 melanoma): 1.94 µM | TGI (U251 CNS): 4.78 µM | TGI (UACC-257 melanoma): 3.73 µM | TGI (SF-268 CNS): 2.59 µM | TGI (NCI-H460 lung): 2.2 µM | TGI (SN12C renal): 2.85 µM
